{"source": "patent US12157741B2", "about": "“Macrocyclic inhibitors of DYRK1A” (DANA-FARBER CANCER INSTITUTE, INC., priority 2018, dated 2024)", "key": {"various enzymes [1]": {"molecular_target": "T1, various enzymes (Homo sapiens, UniProt P29323)", "T1 sequence (P29323 19-1055)": "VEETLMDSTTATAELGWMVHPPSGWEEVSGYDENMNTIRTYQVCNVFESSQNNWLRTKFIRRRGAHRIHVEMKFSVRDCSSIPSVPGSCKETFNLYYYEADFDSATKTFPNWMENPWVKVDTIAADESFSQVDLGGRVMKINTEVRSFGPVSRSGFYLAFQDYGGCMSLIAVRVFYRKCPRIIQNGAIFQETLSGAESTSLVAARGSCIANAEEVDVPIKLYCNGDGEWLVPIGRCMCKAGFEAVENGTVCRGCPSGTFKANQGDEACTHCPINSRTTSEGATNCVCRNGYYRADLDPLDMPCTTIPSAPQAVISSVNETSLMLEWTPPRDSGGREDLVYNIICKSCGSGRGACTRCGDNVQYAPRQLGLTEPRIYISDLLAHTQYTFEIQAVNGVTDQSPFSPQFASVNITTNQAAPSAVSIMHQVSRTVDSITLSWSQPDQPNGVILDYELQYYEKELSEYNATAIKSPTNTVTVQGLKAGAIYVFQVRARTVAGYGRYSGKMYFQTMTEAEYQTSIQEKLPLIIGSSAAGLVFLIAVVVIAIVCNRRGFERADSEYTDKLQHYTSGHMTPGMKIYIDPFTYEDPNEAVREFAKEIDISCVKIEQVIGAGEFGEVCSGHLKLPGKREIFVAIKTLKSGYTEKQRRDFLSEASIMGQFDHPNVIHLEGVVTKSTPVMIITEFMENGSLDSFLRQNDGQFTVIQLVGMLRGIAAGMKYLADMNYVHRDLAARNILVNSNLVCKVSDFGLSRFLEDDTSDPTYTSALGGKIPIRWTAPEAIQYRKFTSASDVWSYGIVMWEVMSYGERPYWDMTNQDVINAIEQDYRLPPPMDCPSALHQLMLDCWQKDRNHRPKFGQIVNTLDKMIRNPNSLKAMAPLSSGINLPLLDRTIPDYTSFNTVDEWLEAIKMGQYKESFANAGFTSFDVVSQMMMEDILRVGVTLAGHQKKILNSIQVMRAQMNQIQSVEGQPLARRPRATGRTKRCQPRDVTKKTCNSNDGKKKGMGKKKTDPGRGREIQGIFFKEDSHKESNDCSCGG", "conditions": "EPHB2; 1 uM", "quoted_text": "(§2) Ambit profiling from Eurofins (formerly Discoverx) was conducted in accordance with the manufacturer's instructions."}, "various enzymes [2]": {"molecular_target": "various enzymes (Homo sapiens, UniProt Q9BWU1)", "conditions": "CDK11; 1 uM", "quoted_text": "as §2"}, "various enzymes [3]": {"molecular_target": "T2, various enzymes (Homo sapiens, UniProt Q9NRM7)", "T2 sequence (Q9NRM7 1-1088)": "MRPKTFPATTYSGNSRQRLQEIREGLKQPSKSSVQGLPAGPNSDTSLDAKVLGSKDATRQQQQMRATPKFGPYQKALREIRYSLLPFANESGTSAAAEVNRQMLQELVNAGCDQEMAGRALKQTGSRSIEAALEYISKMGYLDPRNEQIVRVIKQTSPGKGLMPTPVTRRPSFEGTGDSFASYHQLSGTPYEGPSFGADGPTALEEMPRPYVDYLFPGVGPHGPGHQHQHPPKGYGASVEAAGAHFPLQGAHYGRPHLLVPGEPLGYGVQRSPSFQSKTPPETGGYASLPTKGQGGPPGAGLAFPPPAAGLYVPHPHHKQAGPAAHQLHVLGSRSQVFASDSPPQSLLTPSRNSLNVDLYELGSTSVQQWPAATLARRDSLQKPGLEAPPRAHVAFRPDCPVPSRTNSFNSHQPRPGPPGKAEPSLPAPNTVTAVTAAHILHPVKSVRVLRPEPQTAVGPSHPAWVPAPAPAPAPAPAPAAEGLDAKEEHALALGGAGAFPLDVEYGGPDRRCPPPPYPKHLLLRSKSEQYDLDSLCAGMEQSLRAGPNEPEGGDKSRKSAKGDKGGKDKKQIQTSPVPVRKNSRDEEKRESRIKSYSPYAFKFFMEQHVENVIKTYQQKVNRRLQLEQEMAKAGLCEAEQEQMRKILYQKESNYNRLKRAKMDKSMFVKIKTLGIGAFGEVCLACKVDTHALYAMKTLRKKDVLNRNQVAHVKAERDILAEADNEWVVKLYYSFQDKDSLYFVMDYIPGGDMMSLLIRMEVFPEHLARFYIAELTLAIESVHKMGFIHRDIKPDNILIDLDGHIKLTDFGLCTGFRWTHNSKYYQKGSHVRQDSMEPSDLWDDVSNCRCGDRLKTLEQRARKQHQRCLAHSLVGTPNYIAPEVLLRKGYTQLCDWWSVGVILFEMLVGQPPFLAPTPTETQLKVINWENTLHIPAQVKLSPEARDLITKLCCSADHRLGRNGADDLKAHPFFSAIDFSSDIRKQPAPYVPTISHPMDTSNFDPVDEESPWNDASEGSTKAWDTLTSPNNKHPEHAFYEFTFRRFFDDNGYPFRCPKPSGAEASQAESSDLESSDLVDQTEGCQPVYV", "conditions": "LATS2; 1 uM", "quoted_text": "as §2"}, "various enzymes [4]": {"molecular_target": "various enzymes (Homo sapiens, UniProt P51813)", "format": "binding", "conditions": "compound 1 uM", "description": "(§1) Ambit profiling was conducted in accordance with the manufacturer's instructions."}, "various enzymes [5]": {"molecular_target": "various enzymes (Homo sapiens, UniProt P00533, DEL752-759)", "format": "binding", "conditions": "compound 1 uM", "description": "as §1"}, "various enzymes [6]": {"molecular_target": "various enzymes (Homo sapiens, UniProt P49761)", "sequence (P49761 whole entry)": "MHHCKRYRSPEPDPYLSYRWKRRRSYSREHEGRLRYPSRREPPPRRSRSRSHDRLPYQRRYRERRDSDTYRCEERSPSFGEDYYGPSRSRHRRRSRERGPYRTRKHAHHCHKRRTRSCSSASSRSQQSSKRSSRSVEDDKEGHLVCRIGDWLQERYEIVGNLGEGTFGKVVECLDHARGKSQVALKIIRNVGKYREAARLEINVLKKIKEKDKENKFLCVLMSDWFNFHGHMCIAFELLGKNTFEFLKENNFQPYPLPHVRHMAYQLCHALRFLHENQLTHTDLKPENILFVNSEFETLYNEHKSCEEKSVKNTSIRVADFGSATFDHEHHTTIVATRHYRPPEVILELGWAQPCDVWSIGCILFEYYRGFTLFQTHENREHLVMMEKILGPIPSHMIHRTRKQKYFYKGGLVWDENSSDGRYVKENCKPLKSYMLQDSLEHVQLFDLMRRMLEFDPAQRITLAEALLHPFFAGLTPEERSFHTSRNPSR", "format": "binding", "conditions": "compound 1 uM", "description": "as §1"}, "various enzymes [7]": {"molecular_target": "various enzymes (Homo sapiens, UniProt Q13464)", "sequence (Q13464 whole entry)": "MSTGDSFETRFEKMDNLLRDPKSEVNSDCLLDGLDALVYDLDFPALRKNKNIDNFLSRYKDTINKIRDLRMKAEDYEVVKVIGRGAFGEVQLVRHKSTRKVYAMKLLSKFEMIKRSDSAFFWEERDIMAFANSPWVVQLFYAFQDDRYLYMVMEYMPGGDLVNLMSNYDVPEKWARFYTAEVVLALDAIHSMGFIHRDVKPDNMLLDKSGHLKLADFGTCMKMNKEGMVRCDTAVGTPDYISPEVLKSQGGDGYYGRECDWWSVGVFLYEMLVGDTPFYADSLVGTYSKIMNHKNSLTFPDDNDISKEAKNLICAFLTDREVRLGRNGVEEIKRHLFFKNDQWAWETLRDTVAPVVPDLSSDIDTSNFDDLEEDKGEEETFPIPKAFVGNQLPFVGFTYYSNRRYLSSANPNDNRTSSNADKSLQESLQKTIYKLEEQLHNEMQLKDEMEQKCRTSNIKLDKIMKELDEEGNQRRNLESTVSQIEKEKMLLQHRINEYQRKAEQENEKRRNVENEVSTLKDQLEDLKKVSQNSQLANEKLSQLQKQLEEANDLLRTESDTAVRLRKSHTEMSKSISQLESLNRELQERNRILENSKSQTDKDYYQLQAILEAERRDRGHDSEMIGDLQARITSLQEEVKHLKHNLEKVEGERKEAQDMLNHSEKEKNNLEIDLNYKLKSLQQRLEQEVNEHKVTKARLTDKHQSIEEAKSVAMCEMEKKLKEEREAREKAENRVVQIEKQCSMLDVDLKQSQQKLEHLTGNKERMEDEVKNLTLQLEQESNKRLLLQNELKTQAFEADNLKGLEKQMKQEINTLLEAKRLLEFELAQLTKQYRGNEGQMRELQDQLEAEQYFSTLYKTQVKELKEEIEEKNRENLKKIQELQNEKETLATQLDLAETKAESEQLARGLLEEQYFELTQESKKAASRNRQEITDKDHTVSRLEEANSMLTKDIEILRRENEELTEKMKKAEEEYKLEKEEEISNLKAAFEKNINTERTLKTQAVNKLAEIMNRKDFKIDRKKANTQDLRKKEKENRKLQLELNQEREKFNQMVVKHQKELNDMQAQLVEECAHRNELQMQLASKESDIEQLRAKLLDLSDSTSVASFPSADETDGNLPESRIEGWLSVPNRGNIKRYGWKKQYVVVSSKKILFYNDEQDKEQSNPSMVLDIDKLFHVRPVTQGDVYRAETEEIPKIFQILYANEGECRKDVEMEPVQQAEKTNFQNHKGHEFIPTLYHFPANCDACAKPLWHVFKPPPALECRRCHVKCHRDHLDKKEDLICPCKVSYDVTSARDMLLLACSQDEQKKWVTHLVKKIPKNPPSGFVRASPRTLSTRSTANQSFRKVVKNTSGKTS", "format": "binding", "conditions": "compound 1 uM", "description": "as §1"}, "various enzymes [8]": {"molecular_target": "various enzymes (Homo sapiens, UniProt P57059)", "sequence (P57059 whole entry)": "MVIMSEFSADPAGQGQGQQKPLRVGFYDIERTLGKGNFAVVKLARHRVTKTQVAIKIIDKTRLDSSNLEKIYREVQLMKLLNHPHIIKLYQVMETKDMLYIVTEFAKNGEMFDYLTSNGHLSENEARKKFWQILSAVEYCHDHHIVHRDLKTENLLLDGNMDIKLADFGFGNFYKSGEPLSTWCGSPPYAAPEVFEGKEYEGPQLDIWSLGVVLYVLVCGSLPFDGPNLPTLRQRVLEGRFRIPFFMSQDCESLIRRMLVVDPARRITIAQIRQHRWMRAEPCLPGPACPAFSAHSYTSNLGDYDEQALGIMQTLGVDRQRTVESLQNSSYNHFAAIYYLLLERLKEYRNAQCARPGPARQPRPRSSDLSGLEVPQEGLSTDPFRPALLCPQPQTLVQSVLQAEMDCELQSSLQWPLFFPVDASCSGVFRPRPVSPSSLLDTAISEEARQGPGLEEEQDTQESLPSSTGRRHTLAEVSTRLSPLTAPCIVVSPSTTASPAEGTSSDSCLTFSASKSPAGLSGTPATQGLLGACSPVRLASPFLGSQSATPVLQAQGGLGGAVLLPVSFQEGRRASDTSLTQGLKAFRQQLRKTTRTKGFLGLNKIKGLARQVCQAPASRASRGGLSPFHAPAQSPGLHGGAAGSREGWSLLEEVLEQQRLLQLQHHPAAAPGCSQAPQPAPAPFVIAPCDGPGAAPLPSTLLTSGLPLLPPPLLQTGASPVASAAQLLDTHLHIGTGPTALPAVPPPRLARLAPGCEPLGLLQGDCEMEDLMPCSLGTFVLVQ", "format": "binding", "conditions": "compound 1 uM", "description": "as §1"}, "various enzymes [9]": {"molecular_target": "various enzymes (Homo sapiens, UniProt P0C1S8)", "sequence (P0C1S8 whole entry)": "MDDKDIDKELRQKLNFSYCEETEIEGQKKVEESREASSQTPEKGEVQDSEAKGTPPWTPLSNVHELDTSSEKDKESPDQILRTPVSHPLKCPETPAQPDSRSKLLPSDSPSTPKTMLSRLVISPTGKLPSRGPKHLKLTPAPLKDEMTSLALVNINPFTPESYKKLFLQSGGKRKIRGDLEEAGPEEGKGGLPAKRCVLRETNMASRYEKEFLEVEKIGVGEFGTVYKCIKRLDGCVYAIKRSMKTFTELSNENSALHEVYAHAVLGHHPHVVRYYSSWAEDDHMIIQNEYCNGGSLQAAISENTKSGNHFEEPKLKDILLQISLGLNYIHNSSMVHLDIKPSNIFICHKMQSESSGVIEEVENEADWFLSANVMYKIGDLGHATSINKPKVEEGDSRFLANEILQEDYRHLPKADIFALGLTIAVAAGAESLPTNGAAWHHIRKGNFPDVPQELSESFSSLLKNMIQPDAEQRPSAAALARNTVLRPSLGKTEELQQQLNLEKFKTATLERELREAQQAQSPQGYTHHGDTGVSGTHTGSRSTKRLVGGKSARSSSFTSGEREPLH", "format": "binding", "conditions": "compound 1 uM", "description": "as §1"}, "various enzymes [10]": {"molecular_target": "various enzymes (Homo sapiens, UniProt P42336, E542K)", "format": "binding", "description": "as §1"}, "various enzymes [11]": {"molecular_target": "various enzymes (Homo sapiens, UniProt P22455)", "sequence (P22455 22-802)": "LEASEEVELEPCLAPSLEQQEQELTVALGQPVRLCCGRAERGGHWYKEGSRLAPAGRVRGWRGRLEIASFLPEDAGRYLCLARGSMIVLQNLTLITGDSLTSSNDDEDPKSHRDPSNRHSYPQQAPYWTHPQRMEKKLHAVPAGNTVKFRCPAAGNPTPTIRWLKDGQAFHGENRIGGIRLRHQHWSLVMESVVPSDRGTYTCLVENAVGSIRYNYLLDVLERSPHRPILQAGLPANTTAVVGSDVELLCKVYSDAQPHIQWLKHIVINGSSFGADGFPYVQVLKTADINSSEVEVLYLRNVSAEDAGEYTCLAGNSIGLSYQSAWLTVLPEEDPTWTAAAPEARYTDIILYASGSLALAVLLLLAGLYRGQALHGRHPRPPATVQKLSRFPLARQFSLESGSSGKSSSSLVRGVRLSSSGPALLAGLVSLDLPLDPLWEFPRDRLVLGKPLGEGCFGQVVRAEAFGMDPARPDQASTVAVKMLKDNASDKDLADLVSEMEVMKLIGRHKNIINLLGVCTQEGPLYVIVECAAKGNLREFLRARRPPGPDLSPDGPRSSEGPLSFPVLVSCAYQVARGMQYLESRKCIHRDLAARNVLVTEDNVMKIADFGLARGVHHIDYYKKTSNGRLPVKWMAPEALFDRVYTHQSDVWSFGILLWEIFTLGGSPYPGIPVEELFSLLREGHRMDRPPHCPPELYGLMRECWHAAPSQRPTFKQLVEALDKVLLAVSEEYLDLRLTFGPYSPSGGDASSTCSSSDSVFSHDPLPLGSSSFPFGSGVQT", "format": "binding", "conditions": "compound 1 uM", "description": "as §1"}, "various enzymes [12]": {"molecular_target": "various enzymes (Homo sapiens, UniProt Q96PY6)", "format": "binding", "conditions": "compound 1 uM", "description": "as §1"}, "various enzymes [13]": {"molecular_target": "various enzymes (Homo sapiens, UniProt P00533, DEL746-750)", "format": "binding", "conditions": "compound 1 uM", "description": "as §1"}, "various enzymes [14]": {"molecular_target": "various enzymes (Homo sapiens, UniProt P36888, K663Q)", "format": "binding", "description": "as §1"}, "various enzymes [15]": {"molecular_target": "various enzymes (Homo sapiens, UniProt Q8TDC3)", "sequence (Q8TDC3 whole entry)": "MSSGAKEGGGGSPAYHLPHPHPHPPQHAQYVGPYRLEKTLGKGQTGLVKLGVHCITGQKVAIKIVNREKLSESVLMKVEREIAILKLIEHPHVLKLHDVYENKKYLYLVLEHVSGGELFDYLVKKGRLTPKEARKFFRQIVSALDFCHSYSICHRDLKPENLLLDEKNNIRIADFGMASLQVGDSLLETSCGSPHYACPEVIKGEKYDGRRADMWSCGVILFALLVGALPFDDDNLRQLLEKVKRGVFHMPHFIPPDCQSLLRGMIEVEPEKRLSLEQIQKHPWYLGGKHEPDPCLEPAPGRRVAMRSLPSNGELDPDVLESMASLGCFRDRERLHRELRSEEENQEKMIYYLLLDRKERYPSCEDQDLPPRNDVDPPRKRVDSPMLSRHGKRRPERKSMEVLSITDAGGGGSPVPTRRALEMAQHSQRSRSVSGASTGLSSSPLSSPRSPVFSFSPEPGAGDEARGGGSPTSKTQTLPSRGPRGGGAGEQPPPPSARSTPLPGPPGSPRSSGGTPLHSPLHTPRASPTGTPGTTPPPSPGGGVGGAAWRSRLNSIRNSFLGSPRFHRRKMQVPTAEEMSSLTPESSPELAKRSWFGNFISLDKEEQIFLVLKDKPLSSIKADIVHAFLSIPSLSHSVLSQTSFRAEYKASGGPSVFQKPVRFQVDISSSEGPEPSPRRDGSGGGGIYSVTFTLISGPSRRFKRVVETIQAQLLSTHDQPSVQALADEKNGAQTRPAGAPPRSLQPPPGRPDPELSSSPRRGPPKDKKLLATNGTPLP", "format": "binding", "conditions": "compound 1 uM", "description": "as §1"}}, "note": "Read-outs that look alike come from different tables or passages of the source.", "data": [{"smiles": "CN1Cc2nn(C)cc2-c2cnc3[nH]cc(c3c2)-c2cnn(c2)CCCC1=O", "note": "[Compound 41, (Z)-31,5-dimethyl-11H,21H,31H-5-aza-2(3,5)-pyrrolo[2,3-b]pyridina-1(4,1),3(4,3)-dipyrazolacyclononaphan-6-one]", "values": [{"measurement": "Ambit profiling", "setting": "various enzymes [1]", "result": 80}, {"measurement": "Ambit profiling", "setting": "various enzymes [2]", "result": 84}, {"measurement": "Ambit profiling", "setting": "various enzymes [3]", "result": 63}]}, {"smiles": "CC(C)N1Cc2nn(C)cc2-c2cnc3[nH]cc(c3c2)-c2cn(nc2C(F)(F)F)CCCC1=O", "note": "[Compound 45, (Z)-5-isopropyl-31-methyl-13-(trifluoromethyl)-11H,21H,31H-5-aza-2(3,5)-pyrrolo[2,3-b]pyridina-1(4,1),3(4,3)-dipyrazolacyclononaphan-6-one]", "values": [{"measurement": "Ambit profiling: BMX", "setting": "various enzymes [4]", "result": 35}, {"measurement": "Ambit profiling: EGFR(S752-I759del)", "setting": "various enzymes [5]", "result": 66}, {"measurement": "Ambit profiling: CLK3", "setting": "various enzymes [6]", "result": 33}, {"measurement": "Ambit profiling: ROCK1", "setting": "various enzymes [7]", "result": 95}, {"measurement": "Ambit profiling: SIK", "setting": "various enzymes [8]", "result": 74}, {"measurement": "Ambit profiling: WEE2", "setting": "various enzymes [9]", "result": 100}, {"measurement": "Ambit profiling: PIK3CA(E542K)", "setting": "various enzymes [10]; compound 1 uM", "result": 98}, {"measurement": "Ambit profiling: FGFR4", "setting": "various enzymes [11]", "result": 85}, {"measurement": "Ambit profiling: NEK1", "setting": "various enzymes [12]", "result": 100}, {"measurement": "Ambit profiling: EGFR(E746-A750del)", "setting": "various enzymes [13]", "result": 6.4}, {"measurement": "Ambit profiling: FLT3(K663Q)", "setting": "various enzymes [14]; compound 1 uM", "result": 2}, {"measurement": "Ambit profiling: BRSK1", "setting": "various enzymes [15]", "result": 100}]}, {"smiles": "CN1Cc2nn(C)c(C#N)c2-c2cnc3[nH]cc(c3c2)-c2cn(nc2C(F)(F)F)CCCC1=O", "note": "[Compound 48, (Z)-31,5-dimethyl-6-oxo-13-(trifluoromethyl)-11H,21H,31H-5-aza-2(3,5)-pyrrolo[2,3-b]pyridina-1(4,1),3(4,3)-dipyrazolacyclononaphane-35-carbonitrile]", "values": [{"measurement": "Ambit profiling", "setting": "various enzymes [1]", "result": 99}, {"measurement": "Ambit profiling", "setting": "various enzymes [2]", "result": 100}, {"measurement": "Ambit profiling", "setting": "various enzymes [3]", "result": 100}]}, {"smiles": "COc1c2c(nn1C)CN(C(C)C)C(=O)CCCn1cc(c(C(F)(F)F)n1)-c1c[nH]c3ncc-2cc13", "note": "[Compound 50, (Z)-5-isopropyl-35-methoxy-31-methyl-13-(trifluoromethyl)-11H,21H,31H-5-aza-2(3,5)-pyrrolo[2,3-b]pyridina-1(4,1),3(4,3)-dipyrazolacyclononaphan-6-one]", "values": [{"measurement": "Ambit profiling: BMX", "setting": "various enzymes [4]", "result": 24}, {"measurement": "Ambit profiling: EGFR(S752-I759del)", "setting": "various enzymes [5]", "result": 48}, {"measurement": "Ambit profiling: CLK3", "setting": "various enzymes [6]", "result": 26}, {"measurement": "Ambit profiling: ROCK1", "setting": "various enzymes [7]", "result": 79}, {"measurement": "Ambit profiling: SIK", "setting": "various enzymes [8]", "result": 57}, {"measurement": "Ambit profiling: WEE2", "setting": "various enzymes [9]", "result": 73}, {"measurement": "Ambit profiling: PIK3CA(E542K)", "setting": "various enzymes [10]", "result": 85}, {"measurement": "Ambit profiling: FGFR4", "setting": "various enzymes [11]", "result": 79}, {"measurement": "Ambit profiling: NEK1", "setting": "various enzymes [12]", "result": 71}, {"measurement": "Ambit profiling: EGFR(E746-A750del)", "setting": "various enzymes [13]", "result": 5.9}, {"measurement": "Ambit profiling: FLT3(K663Q)", "setting": "various enzymes [14]", "result": 0.9}, {"measurement": "Ambit profiling: BRSK1", "setting": "various enzymes [15]", "result": 89}]}]}
